Assay: xn = mol fraction of the nth substance listed
Conditions: Liquid, Vibrating tube method

CCCCCCCCCCCCCCCC [hexadecane] + CCCCCCCCCC
mass density [kg/m3]
Conditions | 1000 kPa | 2000 kPa | 3000 kPa | 4000 kPa | 5000 kPa | 6000 kPa | 7000 kPa | 8000 kPa | 9000 kPa | 10000 kPa
295 K, x2 = 0.25 | 760.6 | 761.3 | 762 | 762.6 | 763.3 | 764 | 764.6 | 765.3 | 765.9 | 766.6
295 K, x2 = 0.75 | 739.6 | 740.4 | 741.1 | 741.8 | 742.5 | 743.3 | 744 | 744.7 | 745.4 | 746.2
295.3 K, x2 = 0.5 | 751 | 751.7 | 752.4 | 753.1 | 753.8 | 754.5 | 755.1 | 755.8 | 756.5 | 757.2
